ChEMBL document CHEMBL1201862, “PubChem BioAssay data set” (2004)
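How tested: cells in 96-well plates exposed to compound for 48 hours at five concentrations. GI50 is the concentration that inhibits growth by half.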 Active and inactive are the calls of the source. No stated cut-off is given here; in the data, active = GI50 up to about 1.1 µM and inactive = higher.

Legend:
Experiment in all cases: DTP human tumour cell line panel, 48 h
[1] = test system: 786-0
[2] = test system: A549
[3] = test system: CAKI-1
[4] = test system: HCT-116
[5] = test system: Hs-578T
[6] = test system: KM12
[7] = test system: LOX IMVI
[8] = test system: MDA-MB-231
[9] = test system: Malme-3M
[10] = test system: OVCAR-3
[11] = test system: OVCAR-4
[12] = test system: OVCAR-8
[13] = test system: SF-295
[14] = test system: SF-539
[15] = test system: SK-MEL-28
[16] = test system: SK-MEL-5
[17] = test system: SK-OV-3
[18] = test system: SNB-75
[19] = test system: SW-620
[20] = test system: UACC-257

Compound	GI50 [1]	GI50 [2]	GI50 [3]	GI50 [4]	GI50 [5]	GI50 [6]	GI50 [7]	GI50 [8]	GI50 [9]	GI50 [10]	GI50 [11]	GI50 [12]	GI50 [13]	GI50 [14]	GI50 [15]	GI50 [16]	GI50 [17]	GI50 [18]	GI50 [19]	GI50 [20]
CC1(C)C(C#N)=[N+]([O-])C(C)(C)N1O	> 100 µM (inactive)	> 100 µM (inactive)	> 100 µM (inactive)	> 100 µM (inactive)	> 100 µM (inactive)	> 100 µM (inactive)	77.3 µM (inactive)	> 100 µM (inactive)	> 100 µM (inactive)	> 100 µM (inactive)	> 100 µM (inactive)	> 100 µM (inactive)	> 100 µM (inactive)	> 100 µM (inactive)	> 100 µM (inactive)	34.6 µM (inactive)	> 100 µM (inactive)	> 100 µM (inactive)	72.3 µM (inactive)	> 100 µM (inactive)
COc1ccc(C2=C(Cl)C(=O)N(c3ccc(OC)cc3OC)C(=O)C2(Cl)Cl)cc1	15.6 µM (inactive)	> 100 µM (inactive)	11.9 µM (inactive)	15.5 µM (inactive)	< 0.01 µM (active)	17.1 µM (inactive)	14.7 µM (inactive)	7.62 µM (inactive)	14.6 µM (inactive)	12.5 µM (inactive)	14.5 µM (inactive)	19.5 µM (inactive)	24.3 µM (inactive)	10.4 µM (inactive)	17 µM (inactive)	14.9 µM (inactive)	47.3 µM (inactive)	22.9 µM (inactive)	14.8 µM (inactive)	17.8 µM (inactive)
O=C(c1ccc(Cl)cc1)C1OC12C(=O)Nc1ccccc12 (stereo not given)	11.7 µM (inactive)	23.9 µM (inactive)	6.71 µM (inactive)	3.61 µM (inactive)	16.5 µM (inactive)	15.6 µM (inactive)	1.45 µM (inactive)	21 µM (inactive)	4.55 µM (inactive)	24.6 µM (inactive)	19.1 µM (inactive)	12.1 µM (inactive)	18 µM (inactive)	16 µM (inactive)	15.2 µM (inactive)	12.1 µM (inactive)	25.1 µM (inactive)	17.1 µM (inactive)	3.52 µM (inactive)	13.8 µM (inactive)
Cc1cc(N(CCC#N)CCC#N)ccc1C(=N/NC(=O)c1cc(Cl)ccc1O)/N=N/c1cccc([N+](=O)[O-])c1	29 µM (inactive)	28 µM (inactive)	27 µM (inactive)	22.2 µM (inactive)	38.9 µM (inactive)	23.1 µM (inactive)	15.2 µM (inactive)	14.5 µM (inactive)	34 µM (inactive)	15.9 µM (inactive)	20.4 µM (inactive)	22.6 µM (inactive)	35.9 µM (inactive)	44.5 µM (inactive)	28.9 µM (inactive)	18.1 µM (inactive)	34 µM (inactive)	27.5 µM (inactive)	39.3 µM (inactive)	31.2 µM (inactive)
O=[N+]([O-])c1ccc2c(c1)C1=NN(c3ccccc3)C(c3ccccc3Br)C1CCC2 (stereo not given)	> 50 µM (inactive)	28.1 µM (inactive)	23.4 µM (inactive)	12.4 µM (inactive)	48.1 µM (inactive)	16.9 µM (inactive)	19.9 µM (inactive)	36.3 µM (inactive)	24.8 µM (inactive)	16.2 µM (inactive)	19.9 µM (inactive)	22.2 µM (inactive)	17.9 µM (inactive)	19.1 µM (inactive)	21.1 µM (inactive)	15.4 µM (inactive)	> 50 µM (inactive)	42.8 µM (inactive)	9.12 µM (inactive)	19 µM (inactive)
C=C1C(=O)OC2CC(C)C3CC(O)OC(OCC)C3(C)CC12 (stereo not given)	10.2 µM (inactive)	41.6 µM (inactive)	17.8 µM (inactive)	11.9 µM (inactive)	23.1 µM (inactive)	20.6 µM (inactive)	6.01 µM (inactive)	17.5 µM (inactive)	10.9 µM (inactive)	15.3 µM (inactive)	21.7 µM (inactive)	15.7 µM (inactive)	26.6 µM (inactive)	18.1 µM (inactive)	13 µM (inactive)	15.5 µM (inactive)	27.5 µM (inactive)	15.5 µM (inactive)	6.85 µM (inactive)	16.3 µM (inactive)
CCCCN(Cc1ccccc1)/C(=N/C#N)N(Cc1ccccc1)Cc1ccccc1	17.1 µM (inactive)	13.4 µM (inactive)	10 µM (inactive)	5.16 µM (inactive)	23.4 µM (inactive)	10.2 µM (inactive)	10.9 µM (inactive)	18.7 µM (inactive)	8.59 µM (inactive)	4.3 µM (inactive)	15.8 µM (inactive)	27.9 µM (inactive)	9.95 µM (inactive)	21.9 µM (inactive)	29 µM (inactive)	14.8 µM (inactive)	30.2 µM (inactive)	21.1 µM (inactive)	24.1 µM (inactive)	10.6 µM (inactive)
CN(C)c1ccc(/C=C(\NC(=O)c2ccccc2)C2=NC(CCC(=O)O)C(=O)O2)cc1 (stereo not given)	> 50 µM (inactive)	> 50 µM (inactive)	> 50 µM (inactive)	> 50 µM (inactive)	> 50 µM (inactive)	42.8 µM (inactive)	> 44.9 µM (inactive)	> 50 µM (inactive)	> 31.3 µM (inactive)	> 50 µM (inactive)	> 35.1 µM (inactive)	> 41.4 µM (inactive)	> 50 µM (inactive)	> 35.2 µM (inactive)	> 50 µM (inactive)	> 48.3 µM (inactive)	> 50 µM (inactive)	> 50 µM (inactive)	> 50 µM (inactive)	> 50 µM (inactive)
Cc1cc(C)nc(NS(=O)(=O)c2ccc(NC(=O)c3ccc4nc5ccccc5c(Nc5ccc(S(=O)(=O)Nc6nc(C)cc(C)n6)cc5)c4c3)cc2)n1	> 100 µM (inactive)	> 100 µM (inactive)	> 100 µM (inactive)	57 µM (inactive)	69.7 µM (inactive)	30.3 µM (inactive)	19.1 µM (inactive)	20.8 µM (inactive)	67.5 µM (inactive)	> 100 µM (inactive)	68.7 µM (inactive)	> 100 µM (inactive)	> 100 µM (inactive)	88.3 µM (inactive)	> 100 µM (inactive)	> 100 µM (inactive)	59.2 µM (inactive)	> 100 µM (inactive)	41.4 µM (inactive)	> 100 µM (inactive)
Clc1ccc(Cl)c(/N=N/c2cc3c4c(c2)CCCN4CCC3)c1	> 10 µM (inactive)	> 10 µM (inactive)	> 10 µM (inactive)	> 10 µM (inactive)	> 10 µM (inactive)	> 10 µM (inactive)	> 10 µM (inactive)	> 10 µM (inactive)	> 10 µM (inactive)	> 10 µM (inactive)	> 10 µM (inactive)	> 10 µM (inactive)	> 10 µM (inactive)	> 10 µM (inactive)	> 10 µM (inactive)	> 10 µM (inactive)	> 10 µM (inactive)	> 10 µM (inactive)	> 10 µM (inactive)	> 10 µM (inactive)
CCOc1cc(C2CC(c3ccc(NS(=O)(=O)c4cc([N+](=O)[O-])ccc4C)cc3)=NN2C(=O)c2ccccc2)ccc1O (stereo not given)	23.1 µM (inactive)	17.8 µM (inactive)	24.7 µM (inactive)	15.3 µM (inactive)	16.8 µM (inactive)	30.3 µM (inactive)	26.9 µM (inactive)	17.5 µM (inactive)	13.8 µM (inactive)	12 µM (inactive)	24.6 µM (inactive)	15.2 µM (inactive)	20.8 µM (inactive)	20.9 µM (inactive)	36.5 µM (inactive)	15.8 µM (inactive)	18.2 µM (inactive)	14.1 µM (inactive)	32.8 µM (inactive)	18.2 µM (inactive)
COc1ccc(/C=C\c2cc(OC)c(OC)c(OC)c2)cc1OC(=O)CCC(=O)O	0.000263 µM (active)	0.000655 µM (active)	0.33 µM (active)	< 0.0001 µM (active)	< 0.01 µM (active)	0.00043 µM (active)	< 0.0001 µM (active)	< 0.0001 µM (active)	< 0.0001 µM (active)	< 0.0001 µM (active)	36 µM (inactive)	< 0.01 µM (active)	0.000158 µM (active)	< 0.01 µM (active)	< 0.01 µM (active)	0.1 µM (active)	0.000895 µM (active)	43 µM (inactive)	< 0.0001 µM (active)	> 10 µM (inactive)
CCCCc1ccc(Nc2nc(SC)c3[nH]cnc3n2)cc1	16.4 µM (inactive)	> 100 µM (inactive)	16.9 µM (inactive)	23.6 µM (inactive)	43 µM (inactive)	17.9 µM (inactive)	> 46.6 µM (inactive)	84.3 µM (inactive)	> 100 µM (inactive)	> 55 µM (inactive)	> 100 µM (inactive)	30.2 µM (inactive)	> 47.9 µM (inactive)	36.6 µM (inactive)	> 100 µM (inactive)	17.7 µM (inactive)	> 43.5 µM (inactive)	> 100 µM (inactive)	24.5 µM (inactive)	> 100 µM (inactive)
Cc1cc(/N=N/c2ccccc2C)ccc1N	10.5 µM (inactive)	4.32 µM (inactive)	15.3 µM (inactive)	15.5 µM (inactive)	15.7 µM (inactive)	10.6 µM (inactive)	11.4 µM (inactive)	14.8 µM (inactive)	19 µM (inactive)	7.35 µM (inactive)	19.4 µM (inactive)	15.2 µM (inactive)	11.5 µM (inactive)	2.54 µM (inactive)	21 µM (inactive)	15.8 µM (inactive)	24.8 µM (inactive)	5.94 µM (inactive)	19.6 µM (inactive)	17.9 µM (inactive)
